Assay [1] deals with GABA-A receptor; anion channel (Rattus norvegicus) (UniProt O09028+P15431+P18506+P18508+P19969+P20236+P23574+P23576+P28471+P28473+P30191+P62813+P63079+P63138+Q91ZM7+Q9ES14). The experiment in a line: Relative binding affinity for sodium-independent Gamma-aminobutyric acid receptor synaptic membrane binding site in rat brain tissue. The format is tissue-based.
The target in assay [2] is GABA-A receptor; anion channel. The experiment in a line: Displacement of [3H]gamma-aminobutyric acid from sodium-independent Gamma-aminobutyric acid (GABA-A) receptor synaptic membrane binding sites from rat brain tissue.
Assay [3] concerns the target Gamma-aminobutyric acid receptor subunit gamma-1 (Rattus norvegicus, UniProt P23574). Nature of the assay: […] of [3H]GABA at Gamma-aminobutyric acid receptor in rat brain membranes at 0.01 uM. In kind it is cell membranes.

Gamma-aminobutyric acid receptor subunit gamma-1, sequence (P23574 whole entry): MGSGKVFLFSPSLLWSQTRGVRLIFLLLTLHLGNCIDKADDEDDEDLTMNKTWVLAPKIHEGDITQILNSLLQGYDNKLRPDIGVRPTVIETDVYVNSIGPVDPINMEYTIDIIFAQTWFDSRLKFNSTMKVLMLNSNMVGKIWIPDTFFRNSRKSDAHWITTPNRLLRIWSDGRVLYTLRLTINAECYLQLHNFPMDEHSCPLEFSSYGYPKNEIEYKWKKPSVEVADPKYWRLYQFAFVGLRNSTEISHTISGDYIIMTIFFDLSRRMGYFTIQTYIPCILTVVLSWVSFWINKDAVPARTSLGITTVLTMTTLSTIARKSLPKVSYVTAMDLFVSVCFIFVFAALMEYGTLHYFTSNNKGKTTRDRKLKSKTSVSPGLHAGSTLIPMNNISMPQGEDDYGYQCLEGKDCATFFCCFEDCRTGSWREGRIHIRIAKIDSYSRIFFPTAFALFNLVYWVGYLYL

Take `NCc1cc(O)no1`: the Relative affinity in assay [1] was 6.3.

For `NCC1CCC1C(=O)O` (racemic), the IC50 in assay [2] amounted to 0.00029 M l-1. In addition, the Relative affinity in assay [1] is 6.9.

In assay [3], `CN1CCc2cc3c(cc2[C@H]1[C@@H]1OC(=O)c2c1ccc1c2OCO1)OCO3` [BICUCULLINE] registered an IC50 of 3800 nM. Besides, the Relative affinity in assay [1] came to 0.0056.

`NCc1cc(=O)[nH]o1` [MUSCIMOL]: the IC50 in assay [2] (read-out: IC50) came out at 3.2 nM.
